# Laboratory results: patent publication US9169252B2 (BRISTOL-MYERS SQUIBB COMPANY, priority 2014, dated 2015)
# Where two headings read alike, the source gives them in different places.
# Columns and labels:
# IRAK4 = IRAK4 (Homo sapiens (Human), UniProt Q9NWZ3); assay: IRAK4 Inhibition Assay; format: biochemical; conditions: ATP 500 μM; IRAK4 0.6 nM; read-out: IRAK4 IC50
# Outline: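 IRAK4 combined with fluorescent substrate and compounds, reacted 60 min at room temperature, stopped with 35 mM EDTA. Substrate and phosphorylated product separated electrophoretically on a Caliper LabChip 3000 mobility-shift reader.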
# [1] = test system: TLR2 induced IL-6 in peripheral blood mononuclear cells (PBMCs); assay: PBMC TLR2 Induced IL-6 Assay; format: cell-based, human; conditions: human PBMCs, lipoteichoic acid stimulated, IL-6 by ELISA; for EC50: read-out: Cell EC50; for IC50: read-out: Cell IC50
# Outline: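 Lipoteichoic acid at 10 µg/ml served as TLR2 stimulus for 5 hours, following a 30-minute compound pretreatment at 37° C. Cells were Ficoll-isolated human PBMCs, 250000 cells/well, cultured in RPMI plus 10% heat-inactivated FCS.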
# Chain of IRAK4 (Q9NWZ3 whole entry, species assumed): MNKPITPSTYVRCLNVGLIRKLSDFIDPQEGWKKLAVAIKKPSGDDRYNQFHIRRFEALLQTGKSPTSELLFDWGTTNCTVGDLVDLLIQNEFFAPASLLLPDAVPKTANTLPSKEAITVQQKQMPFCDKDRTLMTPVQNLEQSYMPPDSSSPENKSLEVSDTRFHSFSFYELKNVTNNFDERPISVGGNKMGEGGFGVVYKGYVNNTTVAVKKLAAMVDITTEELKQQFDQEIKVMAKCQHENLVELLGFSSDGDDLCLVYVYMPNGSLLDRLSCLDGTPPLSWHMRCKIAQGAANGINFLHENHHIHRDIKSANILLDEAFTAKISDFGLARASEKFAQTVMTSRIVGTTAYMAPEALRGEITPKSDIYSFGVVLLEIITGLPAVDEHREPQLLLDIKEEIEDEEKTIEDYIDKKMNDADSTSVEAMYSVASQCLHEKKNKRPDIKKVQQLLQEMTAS
Compound,IC50 (IRAK4),"EC50 ([1]; Homo sapiens, PBMC)","IC50 ([1]; Homo sapiens, PBMC)",EC50 [1],IC50 [1]
CCn1nnnc1-c1ccc(Nc2cc(-n3ccc4cc(C#N)cnc43)ncc2C(=O)NC[C@@H](F)C(C)(C)O)cc1 [Example 433],4.1 nM,164 nM,499 nM,–,–
CC(C)NC(=O)[C@H](F)CNc1cc(-n2ccc3cc(C#N)cnc32)ncc1C(=O)NC[C@@H](F)C(C)(C)O [Example 435],9.9 nM,291 nM,–,–,–
CC(C)Nc1cc(-n2ccc3cc(C#N)cnc32)ncc1C(=O)NC1CCN(S(C)(=O)=O)CC1 [Example 447],5.3 nM,92 nM,–,–,–
C[C@H](Nc1cc(-n2ccc3cc(C#N)cnc32)ncc1C(=O)NC[C@@H](F)C(C)(C)O)C1CC1 [Example 451],4.4 nM,429 nM,–,–,–
CC(C)Nc1cc(-n2ccc3cc(C#N)cnc32)ncc1C(=O)NCCNS(=O)(=O)N1CCOCC1 [Example 452],5.2 nM,700 nM,252 nM,–,–
CS(=O)(=O)NCCNC(=O)c1cnc(-n2ccc3cc(C#N)cnc32)cc1NC1CC1 [Example 453],4.4 nM,213 nM,326 nM,–,–
CC(C)(O)[C@H](F)CNC(=O)c1cnc(-n2ccc3cc(C#N)cnc32)cc1N[C@@H]1COC[C@H]1O [Example 456],4.8 nM,–,–,241 nM,–
CC(C)(C)OC(=O)N1CC(Nc2cc(-n3ccc4cc(C#N)cnc43)ncc2C(=O)NC[C@@H](F)C(C)(C)O)C1 [Example 457],10.3 nM,458 nM,1240 nM,–,–
CC(C)(O)[C@H](F)CNC(=O)c1cnc(-n2ccc3cc(C#N)cnc32)cc1NC1CCN(c2ccccc2)CC1 [Example 464],3.1 nM,257 nM,–,–,–
CC(C)(O)[C@H](F)CNC(=O)c1cnc(-n2ccc3cc(C#N)cnc32)cc1N[C@@H]1CCNC1 [Example 466],13.9 nM,792 nM,130 nM,–,–
CC(=O)N1CC(Nc2cc(-n3ccc4cc(C#N)cnc43)ncc2C(=O)NC[C@@H](F)C(C)(C)O)C1 [Example 468],5.8 nM,128 nM,1010 nM,–,–
CC(=O)N1CCC(Nc2cc(-n3ccc4cc(C#N)cnc43)ncc2C(=O)NC[C@@H](F)C(C)(C)O)CC1 [Example 470],8 nM,240 nM,–,–,–
CC(C)(O)[C@H](F)CNC(=O)c1cnc(-n2ccc3cc(C#N)cnc32)cc1Nc1ccc(-n2ccnc2)cc1 [Example 471],10.1 nM,194 nM,–,–,–
CC(C)(O)[C@H](F)CNC(=O)c1cnc(-n2ccc3cc(C#N)cnc32)cc1N[C@@H]1CCN(C(=O)CC(F)(F)F)C1 [Example 473],4.1 nM,238 nM,483 nM,–,–
C[C@@H](CO)Nc1cc(-n2ccc3cc(C#N)cnc32)ncc1C(=O)NCCNS(C)(=O)=O [Example 478],4.7 nM,462 nM,805 nM,–,–
CS(=O)(=O)NCCNC(=O)c1cnc(-n2ccc3cc(C#N)cnc32)cc1NC1CCOCC1 [Example 479],5.7 nM,144 nM,835 nM,–,–
CC(C)(O)[C@H](F)CNC(=O)c1cnc(-n2ccc3cc(C#N)cnc32)cc1NCCN1CCOCC1 [Example 480],4 nM,170 nM,270 nM,–,–
CC(C)(O)[C@H](F)CNC(=O)c1cnc(-n2ccc3cc(C#N)cnc32)cc1NCC1CCOCC1 [Example 482],17.4 nM,433 nM,–,–,–
CC(C)(O)[C@H](F)CNC(=O)c1cnc(-n2ccc3cc(C#N)cnc32)cc1NC1CCC(NCC(F)(F)F)C1 (stereo partly drawn) [Example 488],6.8 nM,208 nM,–,–,379 nM
CC(C)(O)[C@H](F)CNC(=O)c1cnc(-n2ccc3cc(C#N)cnc32)cc1NC1CCC(NCC(F)(F)F)C1 (stereo partly drawn) [Example 489],4.3 nM,–,–,318 nM,1700 nM
CC(C)Nc1cc(-n2ccc3cc(C#N)cnc32)ncc1C(=O)N[C@H]1CC[C@H](C(C)(C)O)C1 [Example 497],3.7 nM,–,98 nM,–,–
CC(C)COC(=O)NCc1cnc2c(ccn2-c2cc(NC(C)C)c(C(=O)NC[C@@H](F)C(C)(C)O)cn2)c1 [Example 498],5.7 nM,–,248 nM,–,–
CCN(CC)C(=O)NCc1cnc2c(ccn2-c2cc(NC(C)C)c(C(=O)NC[C@@H](F)C(C)(C)O)cn2)c1 [Example 500],13.2 nM,–,546 nM,–,–
CCOC(=O)NCc1cnc2c(ccn2-c2cc(NC(C)C)c(C(=O)NC[C@@H](F)C(C)(C)O)cn2)c1 [Example 501],5.4 nM,–,332 nM,–,–
CC(C)Nc1cc(-n2ccc3cc(CNC(=O)OC(C)C)cnc32)ncc1C(=O)NC[C@@H](F)C(C)(C)O [Example 502],4.8 nM,–,366 nM,–,–
CC(C)Nc1cc(-n2ccc3cc(CNC(=O)CC4CCCC4)cnc32)ncc1C(=O)NC[C@@H](F)C(C)(C)O [Example 504],4.3 nM,–,262 nM,–,–
CC(C)Nc1cc(-n2ccc3cc(CNC(=O)C4CC4)cnc32)ncc1C(=O)NC[C@@H](F)C(C)(C)O [Example 505],13.5 nM,–,559 nM,–,–

# Stronger by IC50 (IRAK4), values ahead:
IC50 (IRAK4),Compound,"EC50 ([1]; Homo sapiens, PBMC)","IC50 ([1]; Homo sapiens, PBMC)",EC50 [1],IC50 [1]
1.8 nM,CC(C)(O)[C@H](F)CNC(=O)c1cnc(-n2ccc3cc(C#N)cnc32)cc1Nc1ccc2nn[nH]c2c1 [Example 436],165 nM,–,–,–
1 nM,CC(C)(O)[C@H](F)CNC(=O)c1cnc(-n2ccc3cc(C#N)cnc32)cc1NC1COC1 [Example 437],42 nM,–,–,–
2.5 nM,CC(C)(O)[C@H](F)CNC(=O)c1cnc(-n2ccc3cc(C#N)cnc32)cc1Nc1ccc2[nH]ncc2c1 [Example 438],33 nM,–,–,–
2.6 nM,CC(C)(O)[C@H](F)CNC(=O)c1cnc(-n2ccc3cc(C#N)cnc32)cc1Nc1ccc2nc[nH]c2c1 [Example 439],73 nM,–,–,–
1.9 nM,CC(C)(O)[C@H](F)CNC(=O)c1cnc(-n2ccc3cc(C#N)cnc32)cc1N[C@@H]1CCOC1 [Example 440],72 nM,–,–,–
3 nM,CC(C)(O)[C@H](F)CNC(=O)c1cnc(-n2ccc3cc(C#N)cnc32)cc1N[C@H]1CCOC1 [Example 441],109 nM,–,–,–
2.4 nM,CCOC(C)(C)[C@H](F)CNC(=O)c1cnc(-n2ccc3cc(C#N)cnc32)cc1NC(C)C [Example 448],175 nM,–,–,–
1.5 nM,CC(C)(O)[C@H](F)CNC(=O)c1cnc(-n2ccc3cc(C#N)cnc32)cc1N[C@@H]1CCN(c2ncc(F)cn2)C1 [Example 449],82 nM,59 nM,–,–
2.8 nM,C[C@@H](Nc1cc(-n2ccc3cc(C#N)cnc32)ncc1C(=O)NC[C@@H](F)C(C)(C)O)C1CC1 [Example 450],268 nM,438 nM,–,–
2.2 nM,CC(C)(O)[C@H](F)CNC(=O)c1cnc(-n2ccc3cc(C#N)cnc32)cc1N[C@@H]1COC[C@H]1O [Example 455],–,–,72 nM,–
1.7 nM,CC(C)(O)[C@H](F)CNC(=O)c1cnc(-n2ccc3cc(C#N)cnc32)cc1NC1CCN(S(C)(=O)=O)CC1 [Example 463],23 nM,–,–,–
1.3 nM,CC(C)(O)[C@H](F)CNC(=O)c1cnc(-n2ccc3cc(C#N)cnc32)cc1N[C@@H]1CCN(S(C)(=O)=O)C1 [Example 465],7 nM,23 nM,–,–
2.3 nM,CC(C)Nc1cc(-n2ccc3cc(C#N)cnc32)ncc1C(=O)NCC(=O)N1CCN(C)CC1 [Example 467],26 nM,100 nM,–,–
2.9 nM,CC(=O)N1CC[C@@H](Nc2cc(-n3ccc4cc(C#N)cnc43)ncc2C(=O)NC[C@@H](F)C(C)(C)O)C1 [Example 469],84 nM,207 nM,–,–
2 nM,CC(C)(O)[C@H](F)CNC(=O)c1cnc(-n2ccc3cc(C#N)cnc32)cc1NC1CN(c2ncc(F)cn2)C1 [Example 472],70 nM,123 nM,–,–
1.2 nM,COC(=O)N1CC[C@@H](Nc2cc(-n3ccc4cc(C#N)cnc43)ncc2C(=O)NC[C@@H](F)C(C)(C)O)C1 [Example 474],77 nM,315 nM,–,–
3 nM,CC(C)(O)[C@H](F)CNC(=O)c1cnc(-n2ccc3cc(C#N)cnc32)cc1NC1CN(S(C)(=O)=O)C1 [Example 476],198 nM,–,–,–
2.9 nM,CC(C)(O)[C@H](F)CNC(=O)c1cnc(-n2ccc3cc(C#N)cnc32)cc1N[C@@H]1CCN(C(=O)CC#N)C1 [Example 477],301 nM,1300 nM,–,–
1.9 nM,COC(=O)N1CC(Nc2cc(-n3ccc4cc(C#N)cnc43)ncc2C(=O)NC[C@@H](F)C(C)(C)O)C1 [Example 481],53 nM,595 nM,–,–
1.2 nM,CC(C)(O)[C@H](F)CNC(=O)c1cnc(-n2ccc3cc(C#N)cnc32)cc1N[C@H]1CC[C@H](C(N)=O)CC1 [Example 486],–,177 nM,–,–
2 nM,CC(C)Nc1cc(-n2ccc3cc(C#N)cnc32)ncc1C(=O)NCCC1(O)CCCC1 [Example 487],34 nM,111 nM,–,–
3 nM,CC(C)Nc1cc(-n2ccc3cc(C#N)cnc32)ncc1C(=O)NCC(F)C1(O)COC1 (stereo not drawn) [Example 494],–,289 nM,–,–
1.8 nM,CC(C)Nc1cc(-n2ccc3cc(C#N)cnc32)ncc1C(=O)NCC(F)C1(O)COC1 (stereo not drawn) [Example 495],–,–,–,215 nM
2.3 nM,CC(C)CC(=O)NCc1cnc2c(ccn2-c2cc(NC(C)C)c(C(=O)NC[C@@H](F)C(C)(C)O)cn2)c1 [Example 503],–,99 nM,–,–
1.5 nM,C[C@@H](F)CNc1cc(-n2ccc3cc(C#N)cnc32)ncc1C(=O)NC[C@@H](F)C(C)(C)O [Example 506],–,65 nM,–,–
